Assay results: patent US10131679B2, “Substituted dihydropyrrolopyrazole compound” (UBE INDUSTRIES, LTD., priority 2014, dated 2018)

Experiments:
PAK4 = target: T1, PAK4 (Homo sapiens, UniProt O96013); experiment: PAK4 enzyme inhibition test; assay type: biochemical; settings: Ki=IC50/(1+S/Km); 33P bound to MBP, [γ-33P]ATP, 30° C. for 20 minutes; read-out: Ki value of PAK4 inhibitory activity
T1 construct: purchased Invitrogen Corp. PV4212
Summary of the method: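 Radiometric assay: PAK4 with MBP substrate and 40 μM [γ-^33P]ATP solution in Tris pH 7.5 buffer with MgCl2, DTT, EGTA, reacted 20 min at 30 °C. TCA-precipitated, washed ^33P-MBP counted by scintillation. IC50 from inhibition of ^33P incorporation; Ki = IC50/(1+S/Km).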

[1] = system: human large intestine cancer cell line (HCT-116); experiment: Human large intestine cancer (HCT-116) cell growth inhibition test; assay type: cell-based; settings: 72 h, HCT-116, culture for 3 days, sulforhodamine B absorbance
Summary of the method: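 HCT-116 cells seeded at 1.0×10^3 cells/well in McCoy's 5a with 10% FBS, then exposed to compound (0.1% DMSO final) for 3 days. Growth measured by sulforhodamine B absorbance; IC50 derived from concentration-inhibition data.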

CDK7 = target: T2, CDK7 (Homo sapiens, UniProt P50613); experiment: CDK7 enzyme inhibition test; assay type: biochemical; settings: Ki=IC50/(1+S/Km); 33P bound to MBP, [γ-33P]ATP, 30° C. for 20 minutes; read-out: Ki value of CDK7 inhibitory activity
T2 construct: purchased Carna Biosciences, Inc. 04-108
T2 sequence (P50613 whole entry): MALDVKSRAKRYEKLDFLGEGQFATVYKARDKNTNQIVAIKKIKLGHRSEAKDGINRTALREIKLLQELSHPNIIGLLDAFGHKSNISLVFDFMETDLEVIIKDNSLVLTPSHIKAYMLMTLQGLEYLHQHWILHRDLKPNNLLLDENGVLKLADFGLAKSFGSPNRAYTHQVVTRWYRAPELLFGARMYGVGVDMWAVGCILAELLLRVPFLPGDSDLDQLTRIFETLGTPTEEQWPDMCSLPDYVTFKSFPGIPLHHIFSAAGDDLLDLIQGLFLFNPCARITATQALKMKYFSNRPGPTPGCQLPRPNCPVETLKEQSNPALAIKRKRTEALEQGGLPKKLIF
T2 sequence (P51946 whole entry partner): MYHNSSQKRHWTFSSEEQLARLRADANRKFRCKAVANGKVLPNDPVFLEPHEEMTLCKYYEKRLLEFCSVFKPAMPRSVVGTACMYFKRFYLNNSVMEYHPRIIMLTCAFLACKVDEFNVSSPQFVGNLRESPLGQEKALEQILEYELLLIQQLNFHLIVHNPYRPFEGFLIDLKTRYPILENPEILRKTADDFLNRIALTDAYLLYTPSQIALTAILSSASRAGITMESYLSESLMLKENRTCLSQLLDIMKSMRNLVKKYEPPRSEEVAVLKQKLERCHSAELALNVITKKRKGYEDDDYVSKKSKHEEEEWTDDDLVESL
T2 sequence (P51948 whole entry partner): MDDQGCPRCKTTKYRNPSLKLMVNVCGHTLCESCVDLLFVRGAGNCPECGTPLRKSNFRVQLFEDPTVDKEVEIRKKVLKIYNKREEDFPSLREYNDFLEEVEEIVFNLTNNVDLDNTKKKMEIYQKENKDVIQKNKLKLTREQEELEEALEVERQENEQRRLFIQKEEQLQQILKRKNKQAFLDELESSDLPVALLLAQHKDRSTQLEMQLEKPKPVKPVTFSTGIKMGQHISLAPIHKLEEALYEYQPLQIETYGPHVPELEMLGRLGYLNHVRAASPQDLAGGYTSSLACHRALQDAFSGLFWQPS
Summary of the method: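 Recombinant CDK7 with MBP substrate and [γ-33P]ATP (500 μM solution, diluted into the mix) in HEPES pH 7.4/DTT/Triton X-100/MgCl2, 20 min at 30 °C. TCA-precipitated 33P-MBP counted by scintillation; IC50 from inhibition, Ki = IC50/(1+S/Km).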

T1 sequence (O96013 whole entry): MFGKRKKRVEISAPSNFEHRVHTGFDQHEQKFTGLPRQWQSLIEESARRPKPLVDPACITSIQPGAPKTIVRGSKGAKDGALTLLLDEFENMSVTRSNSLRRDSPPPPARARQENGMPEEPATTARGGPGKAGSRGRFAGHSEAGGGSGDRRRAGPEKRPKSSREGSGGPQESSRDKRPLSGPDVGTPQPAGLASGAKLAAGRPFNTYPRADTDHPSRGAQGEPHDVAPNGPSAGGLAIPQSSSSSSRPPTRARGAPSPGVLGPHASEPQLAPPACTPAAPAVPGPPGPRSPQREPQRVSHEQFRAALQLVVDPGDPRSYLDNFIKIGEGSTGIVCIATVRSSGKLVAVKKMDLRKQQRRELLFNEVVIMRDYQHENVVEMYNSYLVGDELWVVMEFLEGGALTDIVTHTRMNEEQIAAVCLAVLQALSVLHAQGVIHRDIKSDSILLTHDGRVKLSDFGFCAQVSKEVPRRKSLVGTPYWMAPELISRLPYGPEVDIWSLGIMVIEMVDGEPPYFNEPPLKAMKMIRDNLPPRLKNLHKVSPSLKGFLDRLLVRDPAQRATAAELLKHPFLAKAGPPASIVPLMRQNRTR

Row | Structure (SMILES) | Ki (PAK4) [µM] | IC50 [1] [µM] | Ki (CDK7) [µM]
1 | CC1(C)c2[nH]nc(NC(=O)C3([Si](C)(C)C)CCC3)c2CN1C(=O)N[C@H](CO)C1CCCCC1 [IV-495, (S)—N-(1-Cyclohexyl-2-hydroxyethyl)-6,6-dimethyl-3-[1-(trimethylsilyl)cyclobutanecarboxamido]-4,6-dihydropyrrolo[3,4-c]pyrazole-5(1H)-carboxamide] | ≥ 0.5 | ≤ 0.5 | ≤ 0.05
2 | CC1(C)c2[nH]nc(NC(=O)C3([Si](C)(C)C)CCC3)c2CN1C(=O)C(CO)c1ccccc1 (stereo not drawn) [IV-632, N-[5-(3-Hydroxy-2-phenylpropanoyl)-6,6-dimethyl-1,4,5,6-tetrahydropyrrolo[3,4-c]pyrazol-3-yl]-1-(trimethylsilyl)cyclobutanecarboxamide] | ≥ 0.5 | ≤ 0.5 | ≤ 0.05
3 | CC1(C)c2[nH]nc(NC(=O)C3([Si](C)(C)C)CCC3)c2CN1C(=O)N[C@H](CC1(O)CC1)c1ccccc1 [IV-743, (R)—N-[2-(1-Hydroxycyclopropyl)-1-phenylethyl]-6,6-dimethyl-3-[1-(trimethylsilyl)cyclobutanecarboxamido]-4,6-dihydropyrrolo[3,4-c]pyrazole-5(1H)-carboxamide] | ≥ 0.5 | ≤ 0.5 | ≤ 0.05
4 | CC(C)(O)C[C@@H](NC(=O)N1Cc2c(NC(=O)C3([Si](C)(C)C)CCC3)n[nH]c2C1(C)C)c1cccc(F)c1 [IV-911, (R)—N-[1-(3-Fluorophenyl)-3-hydroxy-3-methylbutyl]-6,6-dimethyl-3-[1-(trimethylsilyl)cyclobutanecarboxamido]-4,6-dihydropyrrolo[3,4-c]pyrazole-5(1H)-carboxamide] | ≥ 0.5 | ≤ 0.5 | ≤ 0.05
5 | CC(C)O[C@@H](C(=O)N1Cc2c(NC(=O)C3([Si](C)(C)C)CCC3)n[nH]c2C1(C)C)c1ccccc1 [IV-1204, (R)—N-[5-(2-Isopropoxy-2-phenylacetyl)-6,6-dimethyl-1,4,5,6-tetrahydropyrrolo[3,4-c]pyrazol-3-yl]-1-(trimethylsilyl)cyclobutanecarboxamide] | ≥ 0.5 | ≤ 0.5 | ≤ 0.05
6 | CC1(C)c2[nH]nc(NC(=O)C3([Si](C)(C)C)CCC3)c2CN1C(=O)[C@H](OC1CC1)c1ccccc1 [IV-1208, (R)—N-[5-(2-Cyclopropoxy-2-phenylacetyl)-6,6-dimethyl-1,4,5,6-tetrahydropyrrolo[3,4-c]pyrazol-3-yl]-1-(trimethylsilyl)cyclobutanecarboxamide] | ≥ 0.5 | ≤ 0.5 | ≤ 0.05
7 | CO[C@@H](C(=O)N1Cc2c(NC(=O)C3([Si](C)(C)C)CCC3)n[nH]c2C1(C)C)c1ccccc1F [IV-1383, (R)—N-{5-[2-(2-Fluorophenyl)-2-methoxyacetyl]-6,6-dimethyl-1,4,5,6-tetrahydropyrrolo[3,4-c]pyrazol-3-yl}-1-(trimethylsilyl)cyclobutanecarboxamide] | ≥ 0.5 | ≤ 0.5 | ≤ 0.05
8 | COC(C(=O)N1Cc2c(NC(=O)C3([Si](C)(C)C)CCC3)n[nH]c2C1(C)C)c1cccc(F)c1 (stereo not drawn) [IV-1404, N-{5-[2-(3-Fluorophenyl)-2-methoxyacetyl]-6,6-dimethyl-1,4,5,6-tetrahydropyrrolo[3,4-c]pyrazol-3-yl}-1-(trimethylsilyl)cyclobutanecarboxamide] | ≥ 0.5 | ≤ 0.5 | ≤ 0.05
9 | COC(C(=O)N1Cc2c(NC(=O)C3([Si](C)(C)C)CCC3)n[nH]c2C1(C)C)c1cccs1 (stereo not drawn) [IV-1546, N-{5-[2-Methoxy-2-(thiophen-2-yl)acetyl]-6,6-dimethyl-1,4,5,6-tetrahydropyrrolo[3,4-c]pyrazol-3-yl}-1-(trimethylsilyl)cyclobutanecarboxamide] | ≥ 0.5 | ≤ 0.5 | ≤ 0.05

The next lines start with the values.

Row | Ki (PAK4) [µM] | IC50 [1] [µM] | Ki (CDK7) [µM] | Structure (SMILES)
10 | ≥ 0.5 | ≤ 0.5 | ≤ 0.05 | CN(C(=O)N1Cc2c(NC(=O)C3([Si](C)(C)C)CCC3)n[nH]c2C1(C)C)[C@H](CO)c1ccccc1 [IV-119, (S)—N-(2-Hydroxy-1-phenylethyl)-N,6,6-trimethyl-3-[1-(trimethylsilyl)cyclobutanecarboxamido]-4,6-dihydropyrrolo[3,4-c]pyrazole-5(1H)-carboxamide]
11 | ≥ 0.5 | ≤ 0.5 | ≤ 0.05 | COC[C@@H](NC(=O)N1Cc2c(NC(=O)C3([Si](C)(C)C)CCC3)n[nH]c2C1(C)C)c1ccccc1 [IV-123, (S)—N-(2-Methoxy-1-phenylethyl)-6,6-dimethyl-3-[1-(trimethylsilyl)cyclobutanecarboxamido]-4,6-dihydropyrrolo[3,4-c]pyrazole-5(1H)-carboxamide]
12 | ≥ 0.5 | ≤ 0.5 | ≤ 0.05 | CC(C)(O)[C@@H](NC(=O)N1Cc2c(NC(=O)C3([Si](C)(C)C)CCC3)n[nH]c2C1(C)C)c1ccccc1 [IV-171, (S)—N-(2-Hydroxy-2-methyl-1-phenylpropyl)-6,6-dimethyl-3-[1-(trimethylsilyl)cyclobutanecarboxamido]-4,6-dihydropyrrolo[3,4-c]pyrazole-5(1H)-carboxamide]
13 | ≥ 0.5 | ≤ 0.5 | ≤ 0.05 | CC1(C)c2[nH]nc(NC(=O)C3([Si](C)(C)C)CCC3)c2CN1C(=O)N[C@H](CCO)c1ccccc1 [IV-227, (R)—N-(3-Hydroxy-1-phenylpropyl)-6,6-dimethyl-3-[1-(trimethylsilyl)cyclobutanecarboxamido]-4,6-dihydropyrrolo[3,4-c]pyrazole-5(1H)-carboxamide]
14 | ≥ 0.5 | ≤ 0.5 | ≤ 0.05 | CC1(C)c2[nH]nc(NC(=O)C3([Si](C)(C)C)CCC3)c2CN1C(=O)N[C@H](CCCO)c1ccccc1 [IV-283, (R)—N-(4-Hydroxy-1-phenylbutyl)-6,6-dimethyl-3-[1-(trimethylsilyl)cyclobutanecarboxamido]-4,6-dihydropyrrolo[3,4-c]pyrazole-5(1H)-carboxamide]
15 | ≥ 0.5 | ≤ 0.5 | ≤ 0.05 | CC1(C)c2[nH]nc(NC(=O)C3([Si](C)(C)C)CCC3)c2CN1C(=O)N[C@H](CCCCO)c1ccccc1 [IV-291, (R)—N-(5-Hydroxy-1-phenylpentyl)-6,6-dimethyl-3-[1-(trimethylsilyl)cyclobutanecarboxamido]-4,6-dihydropyrrolo[3,4-c]pyrazole-5(1H)-carboxamide]
16 | ≥ 0.5 | ≤ 0.5 | ≤ 0.05 | CC(C)(O)C[C@@H](NC(=O)N1Cc2c(NC(=O)C3([Si](C)(C)C)CCC3)n[nH]c2C1(C)C)c1ccccc1 [IV-299, (R)—N-(3-Hydroxy-3-methyl-1-phenylbutyl)-6,6-dimethyl-3-[1-(trimethylsilyl)cyclobutanecarboxamido]-4,6-dihydropyrrolo[3,4-c]pyrazole-5(1H)-carboxamide]
17 | ≥ 0.5 | ≤ 0.5 | ≤ 0.05 | CC1(C)c2[nH]nc(NC(=O)C3([Si](C)(C)C)CCC3)c2CN1C(=O)NCCO [IV-438, N-(2-Hydroxyethyl)-6,6-dimethyl-3-[1-(trimethylsilyl)cyclobutanecarboxamido]-4,6-dihydropyrrolo[3,4-c]pyrazole-5(1H)-carboxamide]
18 | ≥ 0.5 | ≤ 0.5 | ≤ 0.05 | CC1(C)c2[nH]nc(NC(=O)C3([Si](C)(C)C)CCC3)c2CN1C(=O)NCC(O)c1ccccc1 (stereo not drawn) [IV-450, N-(2-Hydroxy-2-phenylethyl)-6,6-dimethyl-3-[1-(trimethylsilyl)cyclobutanecarboxamido]-4,6-dihydropyrrolo[3,4-c]pyrazole-5(1H)-carboxamide]
19 | ≥ 0.5 | ≤ 0.5 | ≤ 0.05 | CC(C)[C@@H](CO)NC(=O)N1Cc2c(NC(=O)C3([Si](C)(C)C)CCC3)n[nH]c2C1(C)C [IV-475, (S)—N-(1-Hydroxy-3-methylbutan-2-yl)-6,6-dimethyl-3-[1-(trimethylsilyl)cyclobutanecarboxamido]-4,6-dihydropyrrolo[3,4-c]pyrazole-5(1H)-carboxamide]
